Patent US10702575B2, “Pharmaceutical composition for preventing or treating mycobacterium species infection and method using the same” (Seoul National University R&DB Foundation, priority 2017, dated 2020)
Values after ≈ are worked out from the molar mass of the structure shown. *1 amine or outer side, *2 acyl side, *3 side chain or, on linkers, in order; H or OH if unused. Where a SMILES comes first, the peptide text is derived from it. Bridges are numbered along the chain shown (N, C = ends). [ ]: non-standard residue; d: D form. The star is where a group is joined. ξ: configuration not given here. NMeTrp(4-OMe) = CN[CH](Cc1c[nH]c2cccc(OC)c12)C(=O)O; X1 = O=C(C(N[*:1])C(O)c1ccccc1)[*:2]; ξNMe2Val = CC(C)C(C(=O)*)N(C)C; NMeT = CN[CH](C(=O)O)[CH](C)O; NMeL = CN[CH](CC(C)C)C(=O)O; NMeV = CN[CH](C(=O)O)C(C)C

Legend:
LC3 = LC3 immunoblotting of macrophage cytolysate; type: cell-based, mouse; conditions: for amount of LC3-II after pre-treatment, compared with treatment with OMS-A or OMS-B (FIG. 7B): pre-treatment with 10 μM 3-MA or 100 nM Baf-A before OMS-A or OMS-B; for amount of LC3-II (FIG. 7A): 1 μM, 5 μM, 10 μM, about 24 hours, macrophage
Method: The obtained cytolysate was subjected to immunoblotting using anti-LC3 antibody (available from Cell Signaling) and anti-β-actin antibody (available from Santa Cruz). The results thereof are shown in FIG. 7A (“U” represents “untreated”). Further, in the case of pre-treatment of a macrophage with 10 μM of 3-methyladenine (3-MA), which is an autophagy inhibitor, or 100 nM of Bafilomycin A1 (Baf-A), which is an H^+-ATPase inhibitor, the immunoblot images of the macrophage are shown in FIG. 7B (“U” represents “untreated”, and “SC” represents “solvent control”).

NF-κB = type: cell-based, mouse; conditions: 1 μM, 5 μM, 10 μM, about 6 hours
Mtb H37Rv strain = type: cell-based, Mycobacterium tuberculosis; conditions: REMA; for anti-Mycobacterium tuberculosis activity as compared with INH, EMB, and SQ109 (FIG. 2): RFU vs concentration
[1] = test system: Bone-marrow-derived macrophages (BMDM); test: LC3 puncta formation assay in macrophage; type: cell-based, mouse; conditions: 10 μM, about 24 hours
Method: LC3 puncta formation and lipidation assay (Eisuke and Noboru, Autophagy, 2010, vol. 6, p. 764-776), which is mainly used in macrophage autophagy measurement, was performed. 10 μM of OMS-A or 10 μM of OMS-B was added to BMDM prepared in Section 4, and then cultured for about 24 hours. As a negative control, PBS was used. Subsequently, macrophage was stained with 4′,6-diamidino-2-phenylindole (DAPI, available from Sigma) and anti-LC3 antibody (available from Cell Signaling), and the number of LC3 puncta per macrophage was measured. The images of the stained macrophages are shown in FIG. 6A (“UN” represents “untreated”), and the number of LC3 puncta per macrophage are shown in FIG. 6B (**: p<0.01).

Mtb phagosome = test: co-localization of Mtb phagosome with LC3 or LAMP2 in macrophage; type: cell-based, mouse; conditions: 10 μM, about 24 hours, ERFP-Mtb macrophage
[2] = test system: AMP-activated protein kinase (AMPK) cell signaling pathway; type: cell-based, mouse
macrophage = test: mCherry-EGFP-LC3B autophagic flux in transfected macrophage; conditions: 10 μM, about 24 hours
Text: Further, a macrophage was transfected with a retrovirus vector that expresses mCherry-enhanced green fluorescent protein (EGFP)-LC3B. […] Fluorescent images of the transfected macrophage were obtained, which are shown in FIG. 9 (“UN” represented “untreated”, and “N” represents “nucleus”).

LC3B = test: flow cytometry of macrophage with anti-LC3B antibody; type: cell-based, mouse; conditions: 10 μM, about 24 hours
Method: Subsequently, a mean fluorescence intensity (MFI) of the macrophage was measured using the anti-LC3B antibody (available from Cell Signaling) according to flow cytometry.

M. marinum = test: Mycobacterium marinum-Drosophila melanogaster infection system; type: in vivo; conditions: for viability of Drosophila melanogaster infected with M. marinum (FIG. 5A): OMS-A 1 μM or 10 μM, AMK 1 μg/ml in culture medium, about 30 days

Compound | amount of LC3-II after pre-treatment, compared with treatment with OMS-A or OMS-B (FIG. 7B) (LC3) | NF-κB luciferase activity (FIG. 12B) (NF-κB) | MIC50 (bacterial growth 50% MIC) (Mtb H37Rv strain) [µM] | anti-Mycobacterium tuberculosis activity as compared with INH, EMB, and SQ109 (FIG. 2) (Mtb H37Rv strain) | LC3 puncta formation per macrophage (FIGS. 6A, 6B) [1] | co-localization of LAMP2 and Mtb phagosome (FIGS. 10C, 10D) (Mtb phagosome) | co-localization of LC3 and Mtb phagosome (FIGS. 10A, 10B) (Mtb phagosome) | phoshorylation in Ser78 (S79) of ACC (FIGS. 11A, 11B) [2] | phoshorylation in Thr172 of AMPKα (FIGS. 11A, 11B) [2] | amount of LC3-II (FIG. 7A) (LC3) | number of red puncta, mCherry-EGFP-LC3B (FIG. 9) (macrophage) | LC3B expression, mean fluorescence intensity (FIG. 8) (LC3B) | viability of Drosophila melanogaster infected with M. marinum (FIG. 5A) (M. marinum) | CFUs of M. marinum present in Drosophila melanogaster (FIG. 5B) (M. marinum; 1 μM or 10 μM OMS-A, compared with negative control (SC))
CO/C1=C\C(C)=C\[C@@H](C)[C@@H](O)[C@@H](C)C/C(C)=C/C=C/[C@H](OC)[C@@H]([C@@H](C)[C@@H](O)[C@H](C)[C@@]2(O)C[C@@H](O)[C@H](C)[C@@H](C(C)C)O2)OC1=O [Baf-A, Bafilomycin A1, reference compound] | increased |  |  |  |  |  |  |  |  |  |  |  |  | 
COc1cccc2[nH]cc(CC3C(=O)NC(C(C)C)C(=O)NC(C(O)c4ccccc4)C(=O)NC(C(C)C)C(=O)OC(C)C(NC(=O)C(NC(=O)C(C(C)C)N(C)C)C(C)C)C(=O)N(C)C(C(C)O)C(=O)NC(C(C)C)C(=O)N(C)C(CC(C)C)C(=O)NC(C(C)C)C(=O)N(C)C(C(C)C)C(=O)N3C)c12 (stereo not drawn) [OMS-B, Ohmyungsamycin B] (ξNMe2Val-VT[NMeT]V[NMeL]V[NMeV][NMeTrp(4-OMe)]V[X1]V; ester 2-C; configuration not given here) |  | decreases in a concentration-dependent manner | 0.117 (≈ 0.172 µg/mL) | excellent anti-Mycobacterium tuberculosis activity | great | increased | increased | induced | induced | increased as compared with LC3-I | increased | increased level |  | 
NCC[C@H](O)C(=O)N[C@@H]1C[C@H](N)[C@@H](O[C@H]2O[C@H](CN)[C@@H](O)[C@H](O)[C@H]2O)[C@H](O)[C@H]1O[C@H]1O[C@H](CO)[C@@H](O)[C@H](N)[C@H]1O [AMK, amikacin, reference compound] |  |  |  |  |  |  |  |  |  |  |  |  | increased viability | 
CNC(C(=O)NC(C(=O)NC1C(=O)N(C)C(C(C)O)C(=O)NC(C(C)C)C(=O)N(C)C(CC(C)C)C(=O)NC(C(C)C)C(=O)N(C)C(C(C)C)C(=O)N(C)C(Cc2c[nH]c3cccc(OC)c23)C(=O)NC(C(C)C)C(=O)NC(C(O)c2ccccc2)C(=O)NC(C(C)C)C(=O)OC1C)C(C)C)C(C)C (stereo not drawn) [OMS-A, Ohmyungsamycin A] (H-[NMeV]VT[NMeT]V[NMeL]V[NMeV][NMeTrp(4-OMe)]V[X1]V; ester 3-C; configuration not given here) |  | decreases in a concentration-dependent manner | 0.057 (≈ 0.0832 µg/mL) | excellent anti-Mycobacterium tuberculosis activity | great | increased | increased | induced | induced | increased as compared with LC3-I | increased | increased level | increased viability | decreased in a concentration-dependent manner
Cn1cnc(N)c2ncnc1-2 [3-MA, 3-methyladenine, reference compound] | decreased |  |  |  |  |  |  |  |  |  |  |  |  | 
